ChEMBL document CHEMBL3885881, “DrugMatrix”

Species: Rattus norvegicus
Test: DrugMatrix - Regimen: Daily Repeat
Format: toxicity, organism-based, Sprague-Dawley
Set-up: regimen Daily Repeat, gender Male, age 6-8 weeks
Conditions: in vivo, po, route oral GAVAGE, vehicle 100 % WATER; for BASOPHIL / EOSINOPHIL / ERYTHROCYTE COUNT / HEMATOCRIT / HEMOGLOBIN / LEUKOCYTE COUNT / LYMPHOCYTE / MEAN CORPUSCULAR HEMOGLOBIN / MEAN CORPUSCULAR HEMOGLOBIN CONCENTRATION / MEAN CORPUSCULAR VOLUME / MONOCYTE / NEUTROPHIL / PLATELET COUNT: tissue Blood; for ALANINE AMINOTRANSFERASE / ALBUMIN / ALKALINE PHOSPHATASE / ASPARTATE AMINOTRANSFERASE / BLOOD UREA NITROGEN / CHLORIDE / CHOLESTEROL / CREATINE PHOSPHOKINASE / CREATININE / GLUCOSE / PHOSPHORUS / POTASSIUM / SODIUM / TOTAL BILIRUBIN / TOTAL PROTEIN: tissue Plasma
[1] = 0 mg/kg, 72 h, dose level Control, time 3 day
[2] = 0 mg/kg, 120 h, dose level Control, time 5 day
[3] = 45 mg/kg, 72 h, dose level Low, time 3 day
[4] = 45 mg/kg, 120 h, dose level Low, time 5 day

Nc1ccc(S(=O)(=O)Nc2ncccn2)cc1 [SULFADIAZINE]
BASOPHIL [1]: 0%
EOSINOPHIL [1]: 0.5%
ERYTHROCYTE COUNT [1]: 5.8 x10E6/uL
HEMATOCRIT [1]: 35.07%
HEMOGLOBIN [1]: 14.12 G/DL
LEUKOCYTE COUNT [1]: 13.7 x10E3/uL
LYMPHOCYTE [1]: 82.33%
MEAN CORPUSCULAR HEMOGLOBIN [1]: 24.38 pg
MEAN CORPUSCULAR HEMOGLOBIN CONCENTRATION [1]: 40.28 G/DL
MEAN CORPUSCULAR VOLUME [1]: 60.52 fL
MONOCYTE [1]: 2.67%
NEUTROPHIL [1]: 14.5%
PLATELET COUNT [1]: 911.5 x10E3/uL
ALANINE AMINOTRANSFERASE [1]: 36.83 u/L
ALBUMIN [1]: 3.75 G/DL
ALKALINE PHOSPHATASE [1]: 399.83 u/L
ASPARTATE AMINOTRANSFERASE [1]: 66 u/L
BLOOD UREA NITROGEN [1]: 14.67 mg/dL
CHLORIDE [1]: 101.67 MEQ/L
CHOLESTEROL [1]: 66.33 mg/dL
CREATINE PHOSPHOKINASE [1]: 139.5 u/L
CREATININE [1]: 0.92 mg/dL
GLUCOSE [1]: 175 mg/dL
PHOSPHORUS [1]: 11.42 mg/dL
POTASSIUM [1]: 7.03 MEQ/L
SODIUM [1]: 148.5 MEQ/L
TOTAL BILIRUBIN [1]: 1.13 mg/dL
TOTAL PROTEIN [1]: 6.87 G/DL
BASOPHIL [2]: 0%
EOSINOPHIL [2]: 0.2%
ERYTHROCYTE COUNT [2]: 6.02 x10E6/uL
HEMATOCRIT [2]: 36.48%
HEMOGLOBIN [2]: 14.38 G/DL
LEUKOCYTE COUNT [2]: 12.34 x10E3/uL
LYMPHOCYTE [2]: 83%
MEAN CORPUSCULAR HEMOGLOBIN [2]: 23.92 pg
MEAN CORPUSCULAR HEMOGLOBIN CONCENTRATION [2]: 39.44 G/DL
MEAN CORPUSCULAR VOLUME [2]: 60.66 fL
MONOCYTE [2]: 3%
NEUTROPHIL [2]: 13.8%
PLATELET COUNT [2]: 1190.6 x10E3/uL
ALANINE AMINOTRANSFERASE [2]: 43 u/L
ALBUMIN [2]: 3.73 G/DL
ALKALINE PHOSPHATASE [2]: 393 u/L
ASPARTATE AMINOTRANSFERASE [2]: 62.33 u/L
BLOOD UREA NITROGEN [2]: 16.33 mg/dL
CHLORIDE [2]: 101.67 MEQ/L
CHOLESTEROL [2]: 65.5 mg/dL
CREATINE PHOSPHOKINASE [2]: 130.67 u/L
CREATININE [2]: 0.58 mg/dL
GLUCOSE [2]: 180.67 mg/dL
PHOSPHORUS [2]: 11.28 mg/dL
POTASSIUM [2]: 7.05 MEQ/L
SODIUM [2]: 148.17 MEQ/L
TOTAL BILIRUBIN [2]: 0.72 mg/dL
TOTAL PROTEIN [2]: 6.83 G/DL
BASOPHIL [3]: 0%
EOSINOPHIL [3]: 0%
ERYTHROCYTE COUNT [3]: 6.15 x10E6/uL
HEMATOCRIT [3]: 35.77%
HEMOGLOBIN [3]: 14.2 G/DL
LEUKOCYTE COUNT [3]: 14.83 x10E3/uL
LYMPHOCYTE [3]: 84%
MEAN CORPUSCULAR HEMOGLOBIN [3]: 23.1 pg
MEAN CORPUSCULAR HEMOGLOBIN CONCENTRATION [3]: 39.67 G/DL
MEAN CORPUSCULAR VOLUME [3]: 58.17 fL
MONOCYTE [3]: 2%
NEUTROPHIL [3]: 14%
PLATELET COUNT [3]: 1166 x10E3/uL
ALANINE AMINOTRANSFERASE [3]: 33 u/L
ALBUMIN [3]: 3.57 G/DL
ALKALINE PHOSPHATASE [3]: 285 u/L
ASPARTATE AMINOTRANSFERASE [3]: 56 u/L
BLOOD UREA NITROGEN [3]: 11.67 mg/dL
CHLORIDE [3]: 102 MEQ/L
CHOLESTEROL [3]: 73.33 mg/dL
CREATINE PHOSPHOKINASE [3]: 134 u/L
CREATININE [3]: 0.6 mg/dL
GLUCOSE [3]: 186 mg/dL
PHOSPHORUS [3]: 11.9 mg/dL
POTASSIUM [3]: 7 MEQ/L
SODIUM [3]: 149.67 MEQ/L
TOTAL BILIRUBIN [3]: 0.3 mg/dL
TOTAL PROTEIN [3]: 6.33 G/DL
BASOPHIL [4]: 0%
EOSINOPHIL [4]: 0.33%
ERYTHROCYTE COUNT [4]: 6.55 x10E6/uL
HEMATOCRIT [4]: 40.3%
HEMOGLOBIN [4]: 15.6 G/DL
LEUKOCYTE COUNT [4]: 12.63 x10E3/uL
LYMPHOCYTE [4]: 84%
MEAN CORPUSCULAR HEMOGLOBIN [4]: 23.9 pg
MEAN CORPUSCULAR HEMOGLOBIN CONCENTRATION [4]: 38.8 G/DL
MEAN CORPUSCULAR VOLUME [4]: 61.57 fL
MONOCYTE [4]: 1%
NEUTROPHIL [4]: 14.67%
PLATELET COUNT [4]: 1086.33 x10E3/uL
ALANINE AMINOTRANSFERASE [4]: 37.67 u/L
ALBUMIN [4]: 3.9 G/DL
ALKALINE PHOSPHATASE [4]: 378 u/L
ASPARTATE AMINOTRANSFERASE [4]: 55.67 u/L
BLOOD UREA NITROGEN [4]: 12.67 mg/dL
CHLORIDE [4]: 104 MEQ/L
CHOLESTEROL [4]: 66.33 mg/dL
CREATINE PHOSPHOKINASE [4]: 110.67 u/L
CREATININE [4]: 0.63 mg/dL
GLUCOSE [4]: 181.67 mg/dL
PHOSPHORUS [4]: 12.57 mg/dL
POTASSIUM [4]: 7.23 MEQ/L
SODIUM [4]: 151.33 MEQ/L
TOTAL BILIRUBIN [4]: 0.4 mg/dL
TOTAL PROTEIN [4]: 7.03 G/DL
